Measured values published in patent US12121524B2, “DNA-PK inhibitors” (VERTEX PHARMACEUTICALS INCORPORATED, priority 2018, dated 2024).
Several values for one entry are separate records, joined by “and”; a condition that tells them apart may be missing. Identical values can stand only once.

Experiments:
[1] = molecular target: DNA-PK (Homo sapiens, UniProt P78527); experiment: DNA-PK inhibition assay (standard radiometric 33P-ATP kinase assay); format: biochemical; settings: 100 μM ATP, approx. 6 nM DNA-PK
Description: Compounds were screened for their ability to inhibit DNA-PK kinase using a standard radiometric assay. Briefly, in this kinase assay the transfer of the terminal ^33P-phosphate in ^33P-ATP to a peptide substrate is interrogated. The assay was carried out in 384-well plates to a final volume of 50 μL per well containing approximately 6 nM DNA-PK, 50 mM HEPES (pH 7.5), 10 mM MgCl2, 25 mM NaCl, 0.01% BSA, 1 mM DTT, 10 μg/mL sheared double-stranded DNA (obtained from Sigma), 0.8 mg/mL DNA-PK peptide (Glu-Pro-Pro-Leu-Ser-Gln-Glu-Ala-Phe-Ala-Asp-Leu-Trp-Lys-Lys-Lys, obtained from American Peptide), and 100 μM ATP.
Accordingly, compounds of the invention were dissolved in DMSO to make 10 mM initial stock solutions. Serial dilutions in DMSO were then made to obtain the final solutions for the assay. A 0.75 μL aliquot of DMSO or inhibitor in DMSO was added to each well, followed by the addition of ATP substrate solution containing ^33P-ATP (obtained from Perkin Elmer). The reaction was started by the addition of DNA-PK, peptide and ds-DNA. After 45 min, the reaction was quenched with 25 μL of 5% phosphoric acid. The reaction mixture was transferred to MultiScreen HTS 384-well PH plates (obtained from Millipore), allowed to bind for one hour, and washed three times with 1% phosphoric acid. Following the addition of 50 μL of Ultima Gold™ high efficiency scintillant (obtained from Perkin Elmer), the samples were counted in a Packard TopCount NXT Microplate Scintillation and Luminescence Counter (Packard BioScience). The Ki values were calculated using Microsoft Excel Solver macros to fit the data to the kinetic model for competitive tight-binding inhibition.

[2] = system: mPB CD34+ cells; experiment: Gene editing rates in CD34+ cells, Example 19 (lower sgRNA and ssODN); format: cell-based, human; settings: for % HDR: NAV1.7, 48 h
Description: Primary human mobilized peripheral blood (mPB) CD34^+ hematopoietic stem and progenitor cells (HSPCs) were purchased from Hemacare or AllCells. Cells were thawed, washed and resuspended in complete medium comprised of serum free medium CellGro SCGM (CellGenix) and supplemented with cytokine mix (300 ng/mL SCF, 300 ng/mL Flt3 L, 100 ng/mL TPO, 60 ng/ml IL-3) at a density of 1-3×10^5 cells per mL and incubated at 37° C./5% CO2 incubator for 48 hours prior to electroporation.
(§1) CD34^+ cells were electroporated two days post thaw. The following conditions were used for electroporation: 2.0×E6 cells, 15 μg Cas9 protein (Feldan), 15 μg sgRNA, 1 μM of ssODN in 100 μl of P3 electroporation buffer using program CA-137. Electroporated cells were transferred by equally dividing them into eight wells of a 24-well plate, each well containing various concentrations of DNA-PK inhibitors. Cells were incubated at 37° C. in a 5% CO2 incubator for two days and evaluated for cell viability and gene editing.
Genomic DNA was isolated by incubating cells with 50 ul DNA Quickextract solution (Epicentre) per well of 96 well plate for 30 min at 37° C. Cellular extract was mixed and transferred into a PCR plate and then incubated for 6 min at 65° C. and 2 min at 98° C. PCR reactions were carried out with 1 ul of Genomic DNA containing solution by using AccuPrime™ Pfx DNA Polymerase (Thermofisher, 12344024). PCR conditions were 4 min at 94° C. (1×), followed by 15 s at 94° C., 15 s at 60° C. and 1 min at […]. The PCR products were purified and then Sanger sequenced by GENEWIZ. The following primer pairs spanning the target site were used for PCR (FW, forward; RV, reverse). Primers used by Sanger Sequencing are indicated by an asterisk (*): […]
Each sequence chromatogram was analyzed using TIDE (Tracking of Indels by Decomposition) software (http://tide.nki.nl) (See also Brinkman et al., Nucleic Acids Research, Volume 42, Issue 22, 16 Dec. 2014, Pages e168). Mock-electroporated samples were used as the reference sequence, and parameters were set to an indel size of 30 nt, and the decomposition window was set to cover the largest possible window with high-quality traces. Total indel (insertion and deletions) rates were obtained directly from TIDE plots. HDR rates were the percentage of events with an insertion of 10 Nucleotides. NHEJ Rates were calculated as Total Indel rate−HDR rate. GraphPad Prism 7 software was used to make Graphs and to calculate the all Statistical information.
(§2) mPB CD34^+ cells were electroporated with RNP (spCAS9 protein+NAV1.7 sgRNA) and NAV1.7 Non-PAM ssODN. Cells were then incubated with various concentrations of Compounds 661, 663 and 666. Experiments were done as described in the methods above, except lower concentrations of sgRNA (5 μg) and ssODN (0.2 μM) were used. Gene editing rates were determined by using TIDE assay 48 h after electroporation. Gene editing rates were expressed in percentages and classified as HDR and NHEJ.

[3] = system: mPB CD34+ cells; experiment: CD34+ cell viability (Cell Titer Glo), Example 19; format: cell-based, human; settings: untreated control = 100
Description: as §1
CD34^+ HSPCs cell survival was measured using Cell Titer Glo (CTG) reagent (Promega). 100 μl of cell suspension was mixed with 100 μl complete CTG reagent. The chemiluminescent signal was measure using a luminometer and % of viable cells was calculated as compared to control cells (cells not treated with the DNA-PK inhibitors).
as §2

[4] = system: CD34+ cells; experiment: HDR gene editing rates in CD34+ cells, spCAS9 mRNA, AAVS1 (Example 20); format: cell-based, human; settings: AAVS1 sgRNA, AAVS1 Non-PAM ssODN, 72 hs, FIGS. 8-10
Description: To investigate the effect of DNA-PK inhibitors on HDR gene editing rates, CD34^+ cells were electroporated with spCAS9 mRNA, AAVS1 sgRNA and AAVS1 Non-PAM ssODN and then incubated with different concentrations of Compounds 666, 661, 663 or left untreated (Control). Gene editing rates were determined by using TIDE assay 72 hs after electroporation. Gene editing rates were expressed in percentages and classified as HDR and NHEJ. Cell survival rates are shown in percentages where control cells were set as 100%.

Row | Compound | Ki [1] | % NHEJ ([2]; Donor A, 0.37 μM) [%] | % HDR ([2]; Donor A, 0.37 μM) [%] | % Indels ([2]; Donor A, 1.11 μM) [%] | % NHEJ ([2]; Donor A, 1.11 μM) [%] | % WT ([2]; Donor A, 1.11 μM) [%] | % HDR ([2]; Donor A, 1.11 μM) [%] | % Indels ([2]; Donor A, 3.33 μM) [%] | % WT ([2]; Donor A, 3.33 μM) [%] | % HDR ([2]; Donor A, 3.33 μM) [%] | % NHEJ ([2]; Donor A, 10 μM) [%] | % Indels ([2]; Donor A, 10.00 μM) [%] | % WT ([2]; Donor A, 10.00 μM) [%] | % HDR ([2]; Donor A, 10 μM) [%] | % NHEJ ([2]; Donor D, 0.37 μM) [%] | % HDR ([2]; Donor D, 0.37 μM) [%] | % Indels ([2]; Donor D, 1.11 μM) [%] | % NHEJ ([2]; Donor D, 1.11 μM) [%] | % WT ([2]; Donor D, 1.11 μM) [%] | % HDR ([2]; Donor D, 1.11 μM) [%] | also measured
1 | CNC(=O)c1ccnc(N[C@H]2CC[C@@H](Oc3cc(N4CCOCC4)cc4nccnc34)CC2)n1 [Compound 661] | 1 nM | 66.2 | 21.8 | 59.4 | 59.4 | 4.2 | 31.7 | 57.8 | 5.1 | 32.2 | 47 | 47 | 18.9 | 28 | 78.1 | 6.9 | 77.5 | 77.5 | 6 | 10.8 | % Indels ([2]; Donor D, 3.33 μM): 76.7%; % WT ([2]; Donor D, 3.33 μM): 6.4%; % HDR ([2]; Donor D, 3.33 μM): 11.5%; % NHEJ ([2]; Donor D, 10 μM): 64.2%; % Indels ([2]; Donor D, 10.00 μM): 64.2%; % WT ([2]; Donor D, 10.00 μM): 11.1%; % HDR ([2]; Donor D, 10 μM): 13.4%; Viability ([3]; Donor A, 1.11 μM): 60; Viability ([3]; Donor A, 3.33 μM): 47; Viability ([3]; Donor A, 10.00 μM): 6; Viability ([3]; Donor D, 1.11 μM): 62; Viability ([3]; Donor D, 3.33 μM): 75; Viability ([3]; Donor D, 10.00 μM): 11; HDR rates [4]: improve HDR rates
2 | CNC(=O)c1ccnc(N[C@H]2CC[C@@H](Oc3cc(N4CCOCC4)cc4nonc34)CC2)n1 [Compound 666, N-methyl-2-((4-((6-morpholinobenzo[c][1,2,5]oxadiazol-4-yl)oxy)cyclohexyl)amino)pyrimidine-4-carboxamide] | 1 nM and < 100 nM | 67.3 | 23.2 | 58.8 | 58.8 | 3.5 | 31.5 | 56.5 | 5.8 | 32.4 | 52 | 52 | 9.7 | 33.6 | 79.2 | 5.5 | 77.5 | 77.5 | 6.2 | 11 | % Indels ([2]; Donor D, 3.33 μM): 73.8%; % WT ([2]; Donor D, 3.33 μM): 5.3%; % HDR ([2]; Donor D, 3.33 μM): 14.3%; % NHEJ ([2]; Donor D, 10 μM): 69%; % Indels ([2]; Donor D, 10.00 μM): 69%; % WT ([2]; Donor D, 10.00 μM): 11.8%; % HDR ([2]; Donor D, 10 μM): 13.7%; Viability ([3]; Donor A, 1.11 μM): 65; Viability ([3]; Donor A, 3.33 μM): 42; Viability ([3]; Donor A, 10.00 μM): 36; Viability ([3]; Donor D, 1.11 μM): 76; Viability ([3]; Donor D, 3.33 μM): 69; Viability ([3]; Donor D, 10.00 μM): 34; HDR rates [4]: improve HDR rates
